Earlier results as cited in patent US20180161366A1, “METHODS OF OBTAINING MONONUCLEAR BLOOD CELLS AND USES THEREOF” (Biokine Therapeutics Ltd., priority 2015, published 2018).

Conditions: from DiPersio Blood 2008; cited from earlier work

c1cc(CN2CCCNCCNCCCNCC2)ccc1CN1CCCNCCNCCCNCC1 [AMD3100]
B cells (CD19), Median (range): 1.0 (0.2-2.4) × 10^8/Kg
Cytotoxic T cells (CD3+CD8+), Median (range): 1.3 (0.4-3.4) × 10^8/Kg
HSPC (CD34+), Median (range): 2.9 (1.2-6.3) × 10^6/Kg
NK cells (CD3−CD56+), Median (range): 0.3 (0.1-1.0) × 10^8/Kg
T cells (CD3+), Median (range): 4.6 (1.5-7.8) × 10^8/Kg
T helper cells (CD3+CD4+), Median (range): 3.2 (1-5.7) × 10^8/Kg
